Source: US20190381004A1, “PHOTOPROTECTIVE COMPOSITIONS CONTAINING MALASSEZIA-DERIVED COMPOUNDS AND/OR CHEMICAL ANALOGS THEREOF” (priority 2018, published 2019)
Where two headings read alike, the source gives them in different places.

Legend:
UV-induced erythema = test: In vivo photoprotection proof of concept: UVB irradiation of treated skin sites, erythema assessment; set-up: species or system human; conditions: one Skin Type IV subject
Text: The Malassezin 1% formulation used in this study contained the following ingredients: Water (aqua)—65.939%; Dimethyl isosorbide—20.000%; Olive Oil Glycereth-8 Esters—3.000%; Glycerin—2.991%; Coconut Alkanes—2.700%; Hydroxyethyl Acrylate/Sodium Acryloyldimethyl Taurate Copolymer—1.700%; Malassezin—1.000%; Pentylene Glycol—1.000%; Phenoxyethanol—0.640%; Coco-Caprylate/Caprate—0.300%; Caprylyl Glycol—0.200%; Chlorphenesin—0.160%; Sorbitan Isostearate—0.140%; Tocopherol—0.100%; Polysorbate 60-0.080%; and Disodium EDTA—0.050%.
A Skin Type IV […] was included in this Proof of Concept study.
A template of 6 squares was placed on the lower left back (1.5 cm×1.5 cm) of the test subject.
Twenty-four hours after irradiation, the subject returned for MED assessment.
A second right lower square was treated twice daily from day 4 to day 7, and a third medial square for one application on day 7. The product vehicle was applied for 7 days twice daily on the left back. The subject returned to the research center for irradiation on day 7. Each test site was irradiated with 120 mJ of UVB exposure. The subject returned in 24 hours for assessment of phototoxicity/photoprotection.
The subject continued the experiment, receiving Malassezin 1% for a total of 14 days. […]

[1] = target: T1, arylhydrocarbon receptor (AhR) (Homo sapiens, UniProt P35869); conditions: cited from earlier work
T1 sequence (P35869 11-848): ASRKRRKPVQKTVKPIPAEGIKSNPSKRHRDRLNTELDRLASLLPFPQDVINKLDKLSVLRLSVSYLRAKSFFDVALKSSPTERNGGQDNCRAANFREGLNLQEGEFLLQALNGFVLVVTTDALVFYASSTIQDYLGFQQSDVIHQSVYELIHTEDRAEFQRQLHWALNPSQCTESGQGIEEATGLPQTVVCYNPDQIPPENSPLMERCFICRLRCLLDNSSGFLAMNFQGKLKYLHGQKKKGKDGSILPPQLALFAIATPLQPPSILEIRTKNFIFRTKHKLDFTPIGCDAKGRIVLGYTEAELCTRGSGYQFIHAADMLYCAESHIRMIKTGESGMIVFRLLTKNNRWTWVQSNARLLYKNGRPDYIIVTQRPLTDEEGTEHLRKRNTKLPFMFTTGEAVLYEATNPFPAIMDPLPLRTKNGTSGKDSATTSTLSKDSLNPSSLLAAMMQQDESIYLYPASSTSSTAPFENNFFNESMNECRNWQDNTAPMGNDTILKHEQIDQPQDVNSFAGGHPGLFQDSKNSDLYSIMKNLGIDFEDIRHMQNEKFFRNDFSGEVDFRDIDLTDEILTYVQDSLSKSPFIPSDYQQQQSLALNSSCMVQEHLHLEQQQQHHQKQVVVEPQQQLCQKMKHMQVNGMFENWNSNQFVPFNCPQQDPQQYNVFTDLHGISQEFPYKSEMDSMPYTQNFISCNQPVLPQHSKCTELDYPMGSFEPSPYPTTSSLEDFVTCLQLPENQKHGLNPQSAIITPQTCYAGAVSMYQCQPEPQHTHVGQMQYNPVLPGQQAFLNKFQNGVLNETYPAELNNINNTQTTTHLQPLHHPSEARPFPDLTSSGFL

[2] = cited from earlier work; for sun protection factor (SPF): cream
[3] = system: Candida albicans and staphylococci; conditions: cited from earlier work

| SMILES | UV-protective properties (conclusion of study) (UV-induced erythema) | AhR agonist activity [1] | sun protection factor (SPF) ([2]; pityriacitrin concentration 1.25%) | sun protection factor (SPF) ([2]; pityriacitrin concentration 2.5%) | sun protection factor (SPF) ([2]; pityriacitrin concentration 5%) | UV protective effect overall ([2]; in vitro and in vivo test methods in humans) | UV-protective effect on microflora ([3]; Candida albicans and staphylococci) | toxicity to microflora ([3]; ranges tested) |
| --- | --- | --- | --- | --- | --- | --- | --- | --- |
| O=Cc1c(Cc2c[nH]c3ccccc23)[nH]c2ccccc12 [Malassezin, 2-(1H-indol-3-ylmethyl)-1H-indole-3-carbaldehyde] | UV-protective properties | known agonist | – | – | – | – | – | – |
| O=C(c1c[nH]c2ccccc12)c1nccc2c1[nH]c1ccccc12 [Pityriacitrin] | – | – | 1.4 | 1.5 | 1.7 | very weak | UV-protective effect | no toxicity |
| O=C1Nc2ccccc2/C1=C1/Nc2ccccc2C1=O [Indirubin] | – | known agonist | – | – | – | – | – | – |
